Assay results published in US20230085307A1, “PYRIDAZINONE COMPOUND AND HERBICIDE” (NISSAN CHEMICAL CORPORATION, priority 2019, published 2023).

Legend:
Japanese bulrush = test: Test Example 1: herbicidal activity, application before weed generation under submerged conditions (Table 16, symbol B); format: in vivo, Japanese bulrush (Schoenoplectus juncoides); conditions: amount of applied herbicide 320 g/ha
Outline: (§1)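 Emulsion formulation, water-diluted to set dose, was put onto the flooded surface (4 cm depth, alluvial soil) the same day weeds were sown and 2.5-leaf rice transplanted. After 3 weeks at 25-30 °C under glass, each species was rated 0 (≤5% kill) to 5 (≥90% kill).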

oval-leafed pondweed = test: Test Example 1: herbicidal activity, application before weed generation under submerged conditions (Table 16, symbol C); format: in vivo, oval-leafed pondweed (Monochoria vaginalis); conditions: amount of applied herbicide 320 g/ha
Outline: as §1

barnyard grass [1] = test: Test Example 3: herbicidal effect by foliage application, Wagner pot (Table 18, symbol H); format: in vivo, barnyard grass (Echinochloa crus-galli); conditions: 320 g/ha
Outline: (§2)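 Plants were sown in alluvial soil held under 0.1–0.5 cm standing water and grown 14 days in a greenhouse at 25–30 °C. An emulsifiable formulation, water-diluted to the set dose, was then sprayed onto the foliage, and effects were scored three weeks later using previously defined criteria.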

Chinese sprangletop = test: Test Example 3: herbicidal effect by foliage application, Wagner pot (Table 18, symbol D); format: in vivo, chinese sprangletop (Leptochloa chinensis); conditions: 320 g/ha
Outline: as §2

rice flat sedge = test: Test Example 3: herbicidal effect by foliage application, Wagner pot (Table 18, symbol E); format: in vivo, rice flat sedge (Cyperus iria); conditions: 320 g/ha
Outline: as §2

southern crabgrass = test: Test Example 4: herbicidal effect by soil treatment (Table 19, symbol F); format: in vivo, southern crabgrass (Digitaria ciliaris); conditions: amount of applied herbicide 320 g/ha
Outline: (§3)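 Scoring uses the grading scale of an earlier test, three weeks post-application. Treatment consists of spraying a diluted emulsion formulation across the surface of sterilized diluvial soil in which seeds are buried near 1.5 cm deep; boxes are kept in a greenhouse between 25° C. and 30° C.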

green foxtail [2] = test: Test Example 4: herbicidal effect by soil treatment (Table 19, symbol G); format: in vivo, green foxtail (Setaria viridis); conditions: amount of applied herbicide 320 g/ha
Outline: as §3

barnyard grass [3] = test: Test Example 4: herbicidal effect by soil treatment (Table 19, symbol H); format: in vivo, barnyard grass (Echinochloa crus-galli); conditions: amount of applied herbicide 320 g/ha
Outline: as §3

windgrass [4] = test: Test Example 4: herbicidal effect by soil treatment (Table 19, symbol L); format: in vivo, windgrass (Apera spica-venti); conditions: amount of applied herbicide 320 g/ha
Outline: as §3

velvetleaf = test: Test Example 4: herbicidal effect by soil treatment (Table 19, symbol M); format: in vivo, velvetleaf (Abutilon theophrasti); conditions: amount of applied herbicide 320 g/ha
Outline: as §3

redroot pigweed = test: Test Example 4: herbicidal effect by soil treatment (Table 19, symbol N); format: in vivo, redroot pigweed (Amaranthus retroflexus); conditions: amount of applied herbicide 320 g/ha
Outline: as §3

green foxtail [5] = test: Test Example 5: herbicidal effect by foliage application, plastic box (Table 20, symbol G); format: in vivo, green foxtail (Setaria viridis); conditions: for Herbicidal effect by foliage application, G: green foxtail: amount of applied herbicide 320 g/ha, foliage application after 14-day growth, evaluated three weeks after application
Outline: (§4)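 Post-emergence foliar test in sterilized diluvial soil. Compound applied as water-diluted emulsion at a predetermined rate to 14-day-old plants; evaluation at three weeks.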

barnyard grass [6] = test: Test Example 5: herbicidal effect by foliage application, plastic box (Table 20, symbol H); format: in vivo, barnyard grass (Echinochloa crus-galli); conditions: for Herbicidal effect by foliage application, H: barnyard grass: amount of applied herbicide 320 g/ha, foliage application after 14-day growth, evaluated three weeks after application
Outline: as §4

wild oat = test: Test Example 5: herbicidal effect by foliage application, plastic box (Table 20, symbol I); format: in vivo, wild oat (Avena fatua); conditions: for Herbicidal effect by foliage application, I: wild oat: amount of applied herbicide 320 g/ha, foliage application after 14-day growth, evaluated three weeks after application
Outline: as §4

windgrass [7] = test: Test Example 5: herbicidal effect by foliage application, plastic box (Table 20, symbol L); format: in vivo, windgrass (Apera spica-venti); conditions: for Herbicidal effect by foliage application, L: windgrass: amount of applied herbicide 320 g/ha, foliage application after 14-day growth, evaluated three weeks after application
Outline: as §4

lambsquarters = test: Test Example 5: herbicidal effect by foliage application, plastic box (Table 20, symbol O); format: in vivo, lambsquarters (Chenopodium album); conditions: for Herbicidal effect by foliage application, O: lambsquarters: amount of applied herbicide 320 g/ha, foliage application after 14-day growth, evaluated three weeks after application
Outline: as §4

persian speedwell = test: Test Example 5: herbicidal effect by foliage application, plastic box (Table 20, symbol R); format: in vivo, Persian speedwell (Veronica persica); conditions: for Herbicidal effect by foliage application, R: persian speedwell: amount of applied herbicide 320 g/ha, foliage application after 14-day growth, evaluated three weeks after application
Outline: as §4

[8] = foliage application, 320 g/ha, three weeks after application

Row | SMILES | Herbicidal effect, B: Japanese bulrush (Japanese bulrush) | Herbicidal effect, C: oval-leafed pondweed (oval-leafed pondweed) | herbicidal effect on barnyard grass (H) (barnyard grass [1]) | herbicidal effect on Chinese sprangletop (D) (Chinese sprangletop) | herbicidal effect on rice flat sedge (E) (rice flat sedge) | Herbicidal effect by foliage application, G: green foxtail (green foxtail [5]) | Herbicidal effect by foliage application, H: barnyard grass (barnyard grass [6]) | Herbicidal effect by foliage application, I: wild oat (wild oat) | Herbicidal effect by foliage application, L: windgrass (windgrass [7]) | Herbicidal effect by foliage application, O: lambsquarters (lambsquarters) | Herbicidal effect by foliage application, R: persian speedwell (persian speedwell) | F: southern crabgrass, herbicidal effect grade (southern crabgrass) | G: green foxtail, herbicidal effect grade (green foxtail [2]) | H: barnyard grass, herbicidal effect grade (barnyard grass [3]) | L: windgrass, herbicidal effect grade (windgrass [4]) | M: velvetleaf, herbicidal effect grade (velvetleaf) | N: redroot pigweed, herbicidal effect grade (redroot pigweed) | further results
1 | Cc1nn(C)c(=O)c(-c2c(-c3ccc(Cl)cc3)sc3c(C)cccc23)c1O [4-102] | 0 (Herbicidal rate of 5% or less (almost no effect)) | 0 (Herbicidal rate of 5% or less (almost no effect)) | 1 (Herbicidal rate of 5% or more and less than 20%) | 3 (Herbicidal rate of 40% or more and less than 70%) | 5 (Herbicidal rate of 90% or more (almost completely withered)) | 0 (Herbicidal rate of 5% or less (almost no effect)) | 0 (Herbicidal rate of 5% or less (almost no effect)) | 0 (Herbicidal rate of 5% or less (almost no effect)) | 0 (Herbicidal rate of 5% or less (almost no effect)) | 4 (Herbicidal rate of 70% or more and less than 90%) | 5 (Herbicidal rate of 90% or more (almost completely withered)) |  |  |  |  |  |  | Herbicidal effect by soil treatment, F: southern crabgrass (southern crabgrass): 0 (Herbicidal rate of 5% or less (almost no effect)); Herbicidal effect by soil treatment, G: green foxtail (green foxtail [2]): 0 (Herbicidal rate of 5% or less (almost no effect)); Herbicidal effect by soil treatment, H: barnyard grass (barnyard grass [3]): 0 (Herbicidal rate of 5% or less (almost no effect)); Herbicidal effect by soil treatment, L: windgrass (windgrass [4]): 0 (Herbicidal rate of 5% or less (almost no effect)); Herbicidal effect by soil treatment, M: velvetleaf (velvetleaf): 2 (Herbicidal rate of 20% or more and less than 40%); Herbicidal effect by soil treatment, N: redroot pigweed (redroot pigweed): 4 (Herbicidal rate of 70% or more and less than 90%)
2 | CCCC(=O)Oc1c(C)nn(C)c(=O)c1-c1c(-c2ccc(C#N)cc2)sc2cc(F)c(F)cc12 [5-026] | 0 (Herbicidal rate of 5% or less (almost no effect)) | 0 (Herbicidal rate of 5% or less (almost no effect)) | 3 (Herbicidal rate of 40% or more and less than 70%) | 4 (Herbicidal rate of 70% or more and less than 90%) | 5 (Herbicidal rate of 90% or more (almost completely withered)) | 0 (Herbicidal rate of 5% or less (almost no effect)) | 0 (Herbicidal rate of 5% or less (almost no effect)) | 1 (Herbicidal rate of 5% or more and less than 20%) | 0 (Herbicidal rate of 5% or less (almost no effect)) | 4 (Herbicidal rate of 70% or more and less than 90%) | 4 (Herbicidal rate of 70% or more and less than 90%) | 0 (Herbicidal rate of 5% or less (almost no effect)) | 0 (Herbicidal rate of 5% or less (almost no effect)) | 0 (Herbicidal rate of 5% or less (almost no effect)) | 0 (Herbicidal rate of 5% or less (almost no effect)) | 0 (Herbicidal rate of 5% or less (almost no effect)) | 4 (Herbicidal rate of 70% or more and less than 90%) | 
3 | CCCC(=O)Oc1c(C)nn(C)c(=O)c1-c1c(-c2ccc(F)cc2)sc2cc(C)c(C)cc12 [5-089] | 0 (Herbicidal rate of 5% or less (almost no effect)) | 0 (Herbicidal rate of 5% or less (almost no effect)) | 1 (Herbicidal rate of 5% or more and less than 20%) | 3 (Herbicidal rate of 40% or more and less than 70%) | 3 (Herbicidal rate of 40% or more and less than 70%) |  |  |  |  |  |  | 0 (Herbicidal rate of 5% or less (almost no effect)) | 0 (Herbicidal rate of 5% or less (almost no effect)) | 0 (Herbicidal rate of 5% or less (almost no effect)) | 4 (Herbicidal rate of 70% or more and less than 90%) | 0 (Herbicidal rate of 5% or less (almost no effect)) | 0 (Herbicidal rate of 5% or less (almost no effect)) | herbicidal effect on green foxtail (G) (green foxtail [5]; [8]): 0 (Herbicidal rate of 5% or less (almost no effect)); herbicidal effect on barnyard grass (H) (barnyard grass [6]; [8]): 0 (Herbicidal rate of 5% or less (almost no effect)); herbicidal effect on wild oat (I) (wild oat; [8]): 0 (Herbicidal rate of 5% or less (almost no effect)); herbicidal effect on windgrass (L) (windgrass [7]; [8]): 0 (Herbicidal rate of 5% or less (almost no effect)); herbicidal effect on lambsquarters (O) (lambsquarters; [8]): 0 (Herbicidal rate of 5% or less (almost no effect)); herbicidal effect on persian speedwell (R) (persian speedwell; [8]): 1 (Herbicidal rate of 5% or more and less than 20%)
